Reference: ChEMBL document CHEMBL5126521, “Analgesic Opioid Ligand Discovery Based on Nonmorphinan Scaffolds Derived from Natural Sources” (J Med Chem, 2022)
Square brackets hold non-standard residues; d marks the D form. Peptide text beside a SMILES is read from it. βAla = NCCC(=O)O

Legend:
[1] = tested on: Rattus norvegicus; assay: Antinociceptive activity in rat administered iv; type: functional
[2] = species: Mus musculus; assay: Antinociceptive activity in mouse; type: functional
[3] = tested on: Rattus norvegicus; assay: Antinociceptive activity in rat administered icv; type: functional
[4] = tested on: Rattus norvegicus; assay: Antinociceptive activity in rat at 9 to 120 nmol icv or sc; type: functional; settings: dose 9-120 nmol
[5] = target: Mu-type opioid receptor (Rattus norvegicus, UniProt P33535); assay: Displacement of [3H]DAGO from rat brain MOP incubated for 90 mins by scintillation counter; type: tissue-based
[6] = target: Delta-type opioid receptor (Rattus norvegicus, UniProt P33533); assay: Displacement of [3H][DAla2]deltorphin-I from rat brain DOP incubated for 90 mins by scintillation counter; type: tissue-based
[7] = Toxicity in rat assessed as inhibition of hypercapnic respiratory response at 9 to 120 nmol icv or sc; settings: in vivo, icv_or_intrathecal, dose 9-120 nmol
[8] = target: T1, Mu-type opioid receptor (Cavia porcellus, UniProt P97266); assay: Antagonist activity at guinea pig ileum MOP; type: functional, tissue-based
[9] = target: T2, Kappa-type opioid receptor (Cavia porcellus, UniProt P41144); assay: Displacement of [3H]U69593 from guinea pig brain KOP incubated for 90 mins by scintillation counter; type: tissue-based
[10] = target: T3, Mu-type opioid receptor (Mus musculus, UniProt P42866); assay: Antagonist activity at mouse vas deferns MOP; type: functional
[11] = tested on: Mus musculus; assay: Antinociceptive activity in ip dosed mouse assessed as tail flick latency; type: functional
[12] = Toxicity in ip dosed mouse assessed as antinociceptive tolerance; type: organism-based; settings: in vivo
[13] = target: T4, Mu-type opioid receptor (Homo sapiens, UniProt P35372); assay: Agonist activity at human MOP stably expressed in CHO-K1 cells assessed as inhibition of forskolin-induced cAMP accumulation; type: functional, cell-based
[14] = target: T5, Kappa-type opioid receptor (Homo sapiens, UniProt P41145); assay: Agonist activity at KOP (unknown origin) assessed as inhibition of forskolin-induced cAMP accumulation; type: functional
[15] = tested on: Mus musculus; assay: Antinociceptive activity in mouse administered IV; type: functional
[16] = tested on: Mus musculus; assay: Antinociceptive activity in mouse administered icv; type: functional
[17] = species: Mus musculus; assay: Antinociceptive activity in mouse by tail pressure test; type: functional; settings: Mus musculus; read-out: ED50
[18] = tested on: Mus musculus; assay: Antinociceptive activity in mouse administered iv by hot plate test; type: functional
[19] = target: T3, Mu-type opioid receptor; assay: Antagonist activity at mouse brain homogenate MOP; type: functional, tissue-based
[20] = Toxicity in rat assessed as antinociceptive activity tolerance at 3 to10 nmol/kg measured after 5 days with 62 pmol/h icv infusion relative to control; settings: in vivo, icv_or_intrathecal, 120 h, at 10 nmol/kg, time 5 day
[21] = species: Rattus norvegicus; assay: Antinociceptive activity in rat; type: functional; settings: Rattus norvegicus; read-out: ED50
[22] = target: T6, Delta-type opioid receptor (Homo sapiens, UniProt P41143); assay: Binding affinity to DOP (unknown origin)
[23] = target: T5, Kappa-type opioid receptor; assay: Agonist activity at KOP (unknown origin); type: functional
[24] = tested on: Mus musculus; assay: Antinociceptive activity in po dosed mouse by tail flick assay; type: functional
[25] = target: T6, Delta-type opioid receptor; assay: Inhibition of DOP (unknown origin)
[26] = tested on: Mus musculus; assay: Antinociceptive activity in icv dosed mouse assessed as tail flick latency; type: functional
[27] = tested on: Mus musculus; assay: Antinociceptive activity in sc dosed mouse assessed as tail flick latency; type: functional
[28] = tested on: Mus musculus; assay: Antinociceptive activity in po dosed mouse; type: functional
[29] = target: T4, Mu-type opioid receptor; assay: Binding affinity to MOP (unknown origin)
[30] = Toxicity in po dosed mouse assessed as antinociceptive activity tolerance by tail flick assay; type: organism-based; settings: in vivo
[31] = Displacement of [3H]naltrindole from guinea pig brain membrane DOP incubated for 3 hr by scintillation counter analysis; type: cell membranes, Cavia porcellus
[32] = target: Delta-type opioid receptor (Mus musculus, UniProt P32300); assay: Inhibition of mouse DOP
[33] = target: T4, Mu-type opioid receptor; assay: Agonist activity at MOP (unknown origin); type: functional
[34] = tested on: Mus musculus; assay: Antinociceptive activity in sc dosed mouse by tail flick assay; type: functional
[35] = target: T5, Kappa-type opioid receptor; assay: Inhibition of KOP (unknown origin)
[36] = target: T2, Kappa-type opioid receptor; assay: Displacement of [3H]U69593 from guinea pig brain membrane KOP incubated for 1 hr by scintillation counter analysis; type: cell membranes
[37] = Toxicity in sc dosed mouse assessed as antinociceptive activity tolerance by tail flick assay; type: organism-based; settings: in vivo
[38] = target: T1, Mu-type opioid receptor; assay: Displacement of [3H]DAMGO from guinea pig brain membrane MOP incubated for 1 hr by scintillation counter analysis; type: cell membranes
[39] = tested on: Mus musculus; assay: Antinociceptive activity in sc dosed mouse by hot plate assay; type: functional
[40] = target: T7, Kappa-type opioid receptor (Mus musculus, UniProt P33534); assay: Inhibition of mouse KOP
[41] = tested on: Mus musculus; assay: Antinociceptive activity in po dosed mouse by hot plate assay; type: functional
[42] = tested on: Mus musculus; assay: Antinociceptive activity in sc dosed visceral pain mouse model; type: functional
[43] = tested on: Mus musculus; assay: Antinociceptive activity in po dosed visceral pain mouse model; type: functional
[44] = tested on: Mus musculus; assay: Antinociceptive activity in sc dosed mouse; type: functional
[45] = Toxicity in po dosed mouse assessed as antinociceptive activity tolerance by hot plate assay; type: organism-based; settings: in vivo
[46] = target: T4, Mu-type opioid receptor; assay: Inhibition of MOP (unknown origin)
[47] = tested on: Mus musculus; assay: Antinociceptive activity in ip dosed C57BL/6J mouse assessed as tail withdrawal latency from warm water; type: functional
[48] = target: T7, Kappa-type opioid receptor; assay: Displacement of [3H]U69593 from C57BL6/J mouse brain KOP; type: tissue-based
[49] = target: T7, Kappa-type opioid receptor; assay: Agonist activity at C57BL6/J mouse brain KOP; type: functional, tissue-based
[50] = target: T7, Kappa-type opioid receptor; assay: Agonist activity at C57BL6/J mouse brain KOP by calcium mobilization assay; type: functional, tissue-based
[51] = target: Mu-type opioid receptor (Bos taurus, UniProt P79350); assay: Displacement of [3H]DAMGO from calf thalamus membrane MOP by competitive binding assay; type: cell membranes
[52] = Displacement of [3H]DPDPE from calf frontal cortex membrane Delta-type opioid receptor by competitive binding assay; type: cell membranes, Bos taurus
[53] = tested on: Mus musculus; assay: Antinociceptive activity in mouse at 3.2 to 32 pmol IT or sc; type: functional; settings: dose 3.2-32 pmol
[54] = target: T7, Kappa-type opioid receptor; assay: Displacement of [3H]U69593 from mouse brain membrane KOP by competitive binding assay; type: cell membranes
[55] = Toxicity in mouse assessed as inhibition of gastrointestinal transit at 3.2 to 32 pmol IT or sc by charcoal meal test; type: organism-based; settings: in vivo, other, dose 3.2-32 pmol

C[C@@H](NC(=O)[C@@H](N)Cc1ccc(O)cc1)C(=O)N[C@@H](Cc1ccccc1)C(=O)NCC(=O)N[C@@H](Cc1ccc(O)cc1)C(=O)N1CCC[C@H]1C(=O)N[C@@H](CCCCN)C(N)=O
ED50 [1]: 0.06 µmol/kg | ED50 [2]: 0.22 µmol/kg | ED50 [3]: 0.03 pmol | ED50 [4]: 21.5 µmol/kg | Ki [5]: 0.09 nM | Ki [6]: 1100 nM | Activity [7]: 45.9 µmol/kg | IC50 [8]: 1.7 nM | Ki [9]: 617 nM | IC50 [10]: 52 nM

COC(=O)[C@@H]1C=C(OC(=O)c2ccccc2)C(=O)[C@H]2[C@@]1(C)CC[C@H]1C(=O)O[C@H](c3ccoc3)C[C@]21C
ED50 [11]: 5 mg/kg | ED50 [12]: 7.9 mg/kg

COC(=O)[C@@H]1C[C@H](OC(=O)c2ccc(CO)cc2)C(=O)[C@H]2[C@@]1(C)CC[C@H]1C(=O)O[C@H](c3ccoc3)C[C@]21C
EC50 [13]: 0.03 nM | ED50 [11]: 2.35 mg/kg | EC50 [14]: > 10000 nM

C[C@@H](NC(=O)[C@@H](N)Cc1ccc(O)cc1)C(=O)N[C@@H](Cc1ccccc1)C(=O)NCC(=O)N[C@@H](Cc1ccc(O)cc1)C(=O)N1CCC[C@H]1C(=O)N[C@@H](CO)C(N)=O [DERMORPHIN]
ED50 [3]: 23 pmol | ED50 [15]: 0.46 µmol/kg | ED50 [16]: 6.7 pmol | ED50 [17]: 4.6 µmol/kg | ED50 [18]: 1 µmol/kg | IC50 [19]: 0.76 nM | Activity [20]: 63% | IC50 [8]: 1.1 nM | IC50 [10]: 16.5 nM | ED50 [21]: 1.5 µmol/kg

CC[C@@H]1CN2CCc3c([nH]c4cccc(OC)c34)[C@@H]2C[C@@H]1/C(=C\OC)C(=O)OC
Ki [22]: > 10000 nM | EC50 [23]: 8500 nM | ED50 [24]: 2.1 mg/kg | IC50 [25]: > 10000 nM

COC(=O)[C@@H]1C[C@H](OC(C)=O)C(=O)[C@H]2[C@@]1(C)CC[C@H]1C(=O)O[C@H](c3ccoc3)C[C@]21C [SALVINORIN A]
ED50 [26]: 1.5 µg | ED50 [27]: 2.1 mg/kg

CC[C@@H]1CN2CC[C@]3(O)c4c(cccc4OC)NC3[C@@H]2C[C@@H]1/C(=C\OC)C(=O)OC (stereo partly drawn)
ED50 [28]: 1.1 mg/kg | Ki [29]: 47 nM | ED50 [30]: 7.5 mg/kg | Ki [31]: 96 nM | Ki [22]: 219 nM | IC50 [32]: 10000 nM | EC50 [33]: 34.5 nM | ED50 [34]: 0.8 mg/kg | IC50 [35]: 691 nM | Ki [36]: 85 nM | ED50 [24]: 4.4 mg/kg | ED50 [37]: 1.19 mg/kg | Ki [38]: 11 nM | ED50 [39]: 0.93 mg/kg | IC50 [25]: 2520 nM | IC50 [40]: 7900 nM | ED50 [41]: 2.2 mg/kg | ED50 [42]: 0.15 mg/kg

CC[C@@H]1CN2CC[C@@]34OCCO[C@@]3(Nc3ccc(F)c(OC)c34)[C@@H]2C[C@@H]1/C(=C\OC)C(=O)OC
ED50 [30]: 11.1 mg/kg | Ki [31]: 350 nM | ED50 [43]: 0.6 mg/kg | ED50 [34]: 0.6 mg/kg | Ki [36]: 18 nM | ED50 [24]: 2.8 mg/kg | Ki [38]: 7.3 nM | ED50 [39]: 0.7 mg/kg | ED50 [44]: 0.1 mg/kg | ED50 [45]: 1.3 mg/kg | ED50 [41]: 3 mg/kg

C=C[C@H]1CN2CCc3c([nH]c4cccc(OC)c34)[C@@H]2C[C@@H]1/C(=C\OC)C(=O)OC
Ki [22]: > 10000 nM | IC50 [35]: 10000 nM | IC50 [25]: > 10000 nM | IC50 [46]: 2200 nM

O=C1NCCC(=O)N2CCC[C@@H]2C(=O)N[C@@H](Cc2ccccc2)C(=O)N[C@H]1Cc1c[nH]c2ccccc12 (cyclo(FW[βAla][dP]))
ED50 [47]: 0.64 mg/kg

CCC(=O)O[C@H]1C[C@@H](C(=O)OC)[C@]2(C)CC[C@H]3C(=O)O[C@H](c4ccoc4)C[C@]3(C)[C@H]2C1=O
Ki [48]: 32.6 nM | EC50 [49]: 17 nM | EC50 [50]: 102 nM

Cc1cc(O)cc(C)c1C[C@H](N)C(=O)N[C@H](CCCNC(=N)N)C(=O)N[C@@H](Cc1ccccc1)C(=O)N[C@@H](CCCCN)C(N)=O
Ki [51]: 0.14 nM | Ki [52]: 116 nM | ED50 [53]: 0.0655 mg/kg | Ki [54]: 11.5 nM | ED50 [55]: 0.006 mg/kg
